Usually inhibition stands for the relative decrease from the control value, in per cent. The term residual activity denotes the share of the control activity or signal that is left under treatment.

Consider three compounds from ChEMBL document CHEMBL5696442, “Discovery of type II inhibitors of TGFβ-activated kinase 1 (TAK1) and mitogen-activated protein kinase kinase kinase kinase 2 (MAP4K2)” (J Med Chem, 2015).

Assay [1] has as its system Tyrosine-protein kinase ABL1 (Homo sapiens), P00519 [H396P]. Briefly: Inhibition of nonphosphorylated ABL1 H396P mutant (unknown origin) at 1 uM by Ambit Kinomescan binding assay relative to control.
Assay [2] concerns the target Tyrosine-protein kinase JAK1 (Homo sapiens) (UniProt P23458). Briefly: Inhibition of JAK1 domain2 ACT labeling site in human A-375 cells at 0.5 uM by KiNativ Profiling analysis relative to control. Type of assay: cell-based.
Assay [3] has as its target Cyclin-dependent kinase 17 (Homo sapiens) (UniProt Q00537). Put plainly: Inhibition of PCTAIRE2 Lys1 labeling site harbouring SKLTENLVALKEIRLEHEEGAPCTAIR in human A-375 cells at 0.05 uM by KiNativ Profiling analysis relative to control. The format is cell-based.
Assay [4] has as its target Serine/threonine-protein kinase PAK 1 (Homo sapiens) (UniProt Q13153). Briefly: Inhibition of PAK1 (unknown origin) at 1 uM by Ambit Kinomescan binding assay relative to control; values are per cent of control.
For assay [5], the target named is Protein kinase C epsilon type (Homo sapiens) (UniProt Q02156). Put plainly: Inhibition of PRKCE (unknown origin) at 1 uM by Ambit Kinomescan binding assay relative to control; values are per cent of control.
Assay [6] deals with Cyclin-dependent kinase 2 homolog (Plasmodium falciparum (isolate K1 / Thailand)) (UniProt Q07785). Briefly: Inhibition of Plasmodium falciparum PK5 at 1 uM by Ambit Kinomescan binding assay relative to control; values are per cent of control.
Chain of Cyclin-dependent kinase 2 homolog (Plasmodium falciparum (isolate K1 / Thailand)) (Q07785 whole entry): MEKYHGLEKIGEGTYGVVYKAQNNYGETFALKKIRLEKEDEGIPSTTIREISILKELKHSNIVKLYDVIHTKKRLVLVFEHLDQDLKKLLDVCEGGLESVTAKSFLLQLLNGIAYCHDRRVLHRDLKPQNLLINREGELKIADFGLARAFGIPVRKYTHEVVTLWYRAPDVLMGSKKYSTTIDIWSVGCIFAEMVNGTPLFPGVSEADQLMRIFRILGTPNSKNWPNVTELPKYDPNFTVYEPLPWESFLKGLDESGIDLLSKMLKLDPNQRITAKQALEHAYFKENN
Assay [7] concerns Tyrosine-protein kinase ABL1 (Homo sapiens), P00519 [M351T]. Put plainly: Inhibition of phosphorylated ABL1 M351T mutant (unknown origin) at 1 uM by Ambit Kinomescan binding assay relative to control; values are per cent of control.
Assay [8] deals with Casein kinase I isoform gamma-3 (Homo sapiens) (UniProt Q9Y6M4). Briefly: Inhibition of CSNK1G3 (unknown origin) at 10 uM by Ambit Kinomescan binding assay.
Chain of Casein kinase I isoform gamma-3 (Homo sapiens) (Q9Y6M4 whole entry, looked up, canonical isoform): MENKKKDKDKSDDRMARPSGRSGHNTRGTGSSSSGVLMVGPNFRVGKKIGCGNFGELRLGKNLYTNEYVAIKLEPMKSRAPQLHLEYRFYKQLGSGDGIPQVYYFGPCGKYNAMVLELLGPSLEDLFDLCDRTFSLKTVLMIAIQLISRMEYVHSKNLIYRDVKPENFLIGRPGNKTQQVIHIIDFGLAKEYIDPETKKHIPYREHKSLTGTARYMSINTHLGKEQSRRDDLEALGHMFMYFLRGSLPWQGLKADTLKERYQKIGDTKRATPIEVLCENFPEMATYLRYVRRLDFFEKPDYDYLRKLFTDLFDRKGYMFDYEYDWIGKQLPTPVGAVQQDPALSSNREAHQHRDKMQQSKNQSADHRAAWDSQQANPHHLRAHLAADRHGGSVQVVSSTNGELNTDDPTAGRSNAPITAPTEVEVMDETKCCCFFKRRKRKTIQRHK
The target in assay [9] is Serine/threonine-protein kinase N2 (Homo sapiens) (UniProt Q16513). Briefly: Inhibition of PKN2 (unknown origin) at 10 uM by Ambit Kinomescan binding assay.
Chain of Serine/threonine-protein kinase N2 (Homo sapiens) (Q16513 whole entry, looked up): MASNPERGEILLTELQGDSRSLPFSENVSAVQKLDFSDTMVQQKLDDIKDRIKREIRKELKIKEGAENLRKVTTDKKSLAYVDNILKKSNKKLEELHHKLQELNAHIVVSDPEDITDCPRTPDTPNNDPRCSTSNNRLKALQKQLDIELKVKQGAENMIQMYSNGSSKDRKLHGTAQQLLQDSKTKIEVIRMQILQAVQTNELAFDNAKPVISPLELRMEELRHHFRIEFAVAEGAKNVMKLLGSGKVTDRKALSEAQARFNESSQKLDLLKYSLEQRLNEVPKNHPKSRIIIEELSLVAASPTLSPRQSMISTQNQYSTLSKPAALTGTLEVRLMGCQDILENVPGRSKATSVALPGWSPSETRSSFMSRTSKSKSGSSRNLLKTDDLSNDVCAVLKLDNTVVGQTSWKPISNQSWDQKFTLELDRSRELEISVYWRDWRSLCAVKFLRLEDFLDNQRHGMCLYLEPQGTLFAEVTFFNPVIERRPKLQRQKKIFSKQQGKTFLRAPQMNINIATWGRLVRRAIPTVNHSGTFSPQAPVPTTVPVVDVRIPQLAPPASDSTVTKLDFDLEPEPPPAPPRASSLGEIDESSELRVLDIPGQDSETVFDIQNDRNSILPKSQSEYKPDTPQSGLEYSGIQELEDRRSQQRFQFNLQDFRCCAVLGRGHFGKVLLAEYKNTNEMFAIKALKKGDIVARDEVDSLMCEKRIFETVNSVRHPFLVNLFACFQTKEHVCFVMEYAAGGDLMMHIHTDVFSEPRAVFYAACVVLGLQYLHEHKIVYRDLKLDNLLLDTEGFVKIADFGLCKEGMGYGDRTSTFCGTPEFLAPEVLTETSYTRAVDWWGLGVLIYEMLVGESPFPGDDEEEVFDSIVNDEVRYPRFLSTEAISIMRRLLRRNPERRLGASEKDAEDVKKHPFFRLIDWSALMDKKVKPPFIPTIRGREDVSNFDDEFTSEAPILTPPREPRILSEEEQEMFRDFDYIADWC
For assay [10], the target named is Cyclin-dependent kinase 8 (Homo sapiens) (UniProt P49336). Put plainly: Inhibition of CDK8 Lys2 labeling site in human A-375 cells at 0.5 uM by KiNativ Profiling analysis relative to control. The format is cell-based.
Chain of Cyclin-dependent kinase 8 (Homo sapiens) (P49336 whole entry): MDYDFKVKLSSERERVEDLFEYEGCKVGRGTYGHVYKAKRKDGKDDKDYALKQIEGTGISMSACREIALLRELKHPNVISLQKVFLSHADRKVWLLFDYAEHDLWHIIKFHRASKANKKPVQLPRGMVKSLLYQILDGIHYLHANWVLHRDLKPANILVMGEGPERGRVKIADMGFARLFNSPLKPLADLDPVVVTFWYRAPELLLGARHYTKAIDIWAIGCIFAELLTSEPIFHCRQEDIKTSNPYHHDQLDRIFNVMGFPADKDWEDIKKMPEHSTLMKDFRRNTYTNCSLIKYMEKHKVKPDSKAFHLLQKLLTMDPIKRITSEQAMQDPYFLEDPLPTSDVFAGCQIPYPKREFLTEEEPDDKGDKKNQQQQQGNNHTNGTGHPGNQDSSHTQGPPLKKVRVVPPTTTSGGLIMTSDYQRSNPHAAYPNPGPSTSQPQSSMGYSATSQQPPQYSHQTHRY
The target of assay [11] is Serine/threonine-protein kinase 38-like (Homo sapiens) (UniProt Q9Y2H1). Put plainly: Inhibition of NDR2 ACT labeling site in human A-375 cells at 0.5 uM by KiNativ Profiling analysis relative to control. The format is cell-based.
Chain of Serine/threonine-protein kinase 38-like (Homo sapiens) (Q9Y2H1 2-464 limits assumed): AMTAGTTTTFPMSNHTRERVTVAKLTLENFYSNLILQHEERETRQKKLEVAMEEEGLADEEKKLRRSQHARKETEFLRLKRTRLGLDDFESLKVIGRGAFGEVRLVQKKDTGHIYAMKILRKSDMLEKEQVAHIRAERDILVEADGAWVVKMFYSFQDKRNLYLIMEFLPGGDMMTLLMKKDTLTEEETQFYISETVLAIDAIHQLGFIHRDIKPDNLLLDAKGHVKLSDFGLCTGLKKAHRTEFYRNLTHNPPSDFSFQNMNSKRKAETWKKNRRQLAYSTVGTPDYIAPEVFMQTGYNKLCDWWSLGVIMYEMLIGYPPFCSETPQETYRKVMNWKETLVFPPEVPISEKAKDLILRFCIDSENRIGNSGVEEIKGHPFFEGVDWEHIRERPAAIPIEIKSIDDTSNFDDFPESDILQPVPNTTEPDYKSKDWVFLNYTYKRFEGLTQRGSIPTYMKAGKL
The target in assay [12] is T1, Mitogen-activated protein kinase kinase kinase 15 (Homo sapiens) (UniProt Q6ZN16).
T1 sequence (whole entry): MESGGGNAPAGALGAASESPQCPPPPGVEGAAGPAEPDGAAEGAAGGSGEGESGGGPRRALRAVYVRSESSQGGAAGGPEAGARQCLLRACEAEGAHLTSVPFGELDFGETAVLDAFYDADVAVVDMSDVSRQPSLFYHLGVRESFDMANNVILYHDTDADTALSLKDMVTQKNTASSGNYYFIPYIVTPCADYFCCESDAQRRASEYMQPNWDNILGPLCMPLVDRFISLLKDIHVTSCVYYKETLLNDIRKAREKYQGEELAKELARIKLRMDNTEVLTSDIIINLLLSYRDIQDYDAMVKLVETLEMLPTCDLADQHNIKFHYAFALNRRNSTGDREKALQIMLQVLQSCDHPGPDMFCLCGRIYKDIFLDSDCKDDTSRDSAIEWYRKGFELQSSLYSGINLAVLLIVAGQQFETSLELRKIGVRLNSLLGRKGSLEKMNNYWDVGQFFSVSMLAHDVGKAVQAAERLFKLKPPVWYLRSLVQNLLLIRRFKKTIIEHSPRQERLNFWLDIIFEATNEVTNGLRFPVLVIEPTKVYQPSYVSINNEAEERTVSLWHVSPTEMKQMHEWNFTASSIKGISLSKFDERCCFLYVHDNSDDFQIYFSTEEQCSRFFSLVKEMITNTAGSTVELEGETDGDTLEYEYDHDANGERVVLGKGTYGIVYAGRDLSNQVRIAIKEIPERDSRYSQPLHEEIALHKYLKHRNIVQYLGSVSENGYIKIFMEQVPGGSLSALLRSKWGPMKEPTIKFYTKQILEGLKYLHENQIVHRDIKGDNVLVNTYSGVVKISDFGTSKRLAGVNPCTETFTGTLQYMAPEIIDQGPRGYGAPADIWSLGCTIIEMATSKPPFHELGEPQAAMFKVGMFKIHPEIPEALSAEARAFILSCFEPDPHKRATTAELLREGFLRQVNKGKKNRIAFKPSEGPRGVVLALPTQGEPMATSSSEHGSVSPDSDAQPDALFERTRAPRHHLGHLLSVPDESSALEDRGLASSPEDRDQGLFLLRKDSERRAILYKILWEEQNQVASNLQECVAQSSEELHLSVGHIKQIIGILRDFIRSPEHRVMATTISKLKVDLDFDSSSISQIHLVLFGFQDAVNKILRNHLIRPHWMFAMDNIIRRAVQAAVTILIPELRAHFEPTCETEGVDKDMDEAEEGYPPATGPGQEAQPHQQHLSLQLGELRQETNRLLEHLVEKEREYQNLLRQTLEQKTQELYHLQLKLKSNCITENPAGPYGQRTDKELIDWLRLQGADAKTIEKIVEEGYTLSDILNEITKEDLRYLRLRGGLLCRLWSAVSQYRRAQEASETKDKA
Briefly: Inhibition of MAP3K15 Lys1 labeling site harbouring IAIKEIPER in human A-375 cells at 0.05 uM by KiNativ Profiling analysis relative to control. The format is cell-based.

Assay [13] in a line: Inhibition of KHS2 Lys1 labeling site in human Huh-7 cell lysate at 1 uM by KiNativ Profiling analysis relative to control. Conditions: condition cancer.
Assay [14] has as its target Microtubule-associated serine/threonine-protein kinase 1 (Homo sapiens) (UniProt Q9Y2H9). Briefly: Inhibition of MAST1 Lys2 labeling site in human Huh-7 cells at 1 uM by KiNativ Profiling analysis relative to control.

Activity calls are given as the source filed them. No cut-off for these calls is given here.

Chain of Cyclin-dependent kinase 17 (Homo sapiens) (Q00537 whole entry, looked up): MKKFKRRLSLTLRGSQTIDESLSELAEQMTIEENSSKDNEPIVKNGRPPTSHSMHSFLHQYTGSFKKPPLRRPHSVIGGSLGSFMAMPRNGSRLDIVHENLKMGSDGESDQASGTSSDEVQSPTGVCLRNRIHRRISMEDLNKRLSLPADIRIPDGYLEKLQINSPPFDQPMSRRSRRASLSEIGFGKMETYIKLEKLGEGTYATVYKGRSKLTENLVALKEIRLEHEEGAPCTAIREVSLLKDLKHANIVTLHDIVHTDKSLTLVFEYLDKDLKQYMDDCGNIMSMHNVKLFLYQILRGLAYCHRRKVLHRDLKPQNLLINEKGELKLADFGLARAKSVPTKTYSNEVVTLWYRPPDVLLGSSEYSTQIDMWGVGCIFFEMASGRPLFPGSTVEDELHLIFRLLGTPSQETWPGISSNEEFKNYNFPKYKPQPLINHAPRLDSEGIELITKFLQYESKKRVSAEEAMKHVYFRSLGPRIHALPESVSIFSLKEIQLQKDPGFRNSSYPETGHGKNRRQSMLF
Chain of Tyrosine-protein kinase JAK1 (Homo sapiens) (P23458 whole entry, the tested form may be a part): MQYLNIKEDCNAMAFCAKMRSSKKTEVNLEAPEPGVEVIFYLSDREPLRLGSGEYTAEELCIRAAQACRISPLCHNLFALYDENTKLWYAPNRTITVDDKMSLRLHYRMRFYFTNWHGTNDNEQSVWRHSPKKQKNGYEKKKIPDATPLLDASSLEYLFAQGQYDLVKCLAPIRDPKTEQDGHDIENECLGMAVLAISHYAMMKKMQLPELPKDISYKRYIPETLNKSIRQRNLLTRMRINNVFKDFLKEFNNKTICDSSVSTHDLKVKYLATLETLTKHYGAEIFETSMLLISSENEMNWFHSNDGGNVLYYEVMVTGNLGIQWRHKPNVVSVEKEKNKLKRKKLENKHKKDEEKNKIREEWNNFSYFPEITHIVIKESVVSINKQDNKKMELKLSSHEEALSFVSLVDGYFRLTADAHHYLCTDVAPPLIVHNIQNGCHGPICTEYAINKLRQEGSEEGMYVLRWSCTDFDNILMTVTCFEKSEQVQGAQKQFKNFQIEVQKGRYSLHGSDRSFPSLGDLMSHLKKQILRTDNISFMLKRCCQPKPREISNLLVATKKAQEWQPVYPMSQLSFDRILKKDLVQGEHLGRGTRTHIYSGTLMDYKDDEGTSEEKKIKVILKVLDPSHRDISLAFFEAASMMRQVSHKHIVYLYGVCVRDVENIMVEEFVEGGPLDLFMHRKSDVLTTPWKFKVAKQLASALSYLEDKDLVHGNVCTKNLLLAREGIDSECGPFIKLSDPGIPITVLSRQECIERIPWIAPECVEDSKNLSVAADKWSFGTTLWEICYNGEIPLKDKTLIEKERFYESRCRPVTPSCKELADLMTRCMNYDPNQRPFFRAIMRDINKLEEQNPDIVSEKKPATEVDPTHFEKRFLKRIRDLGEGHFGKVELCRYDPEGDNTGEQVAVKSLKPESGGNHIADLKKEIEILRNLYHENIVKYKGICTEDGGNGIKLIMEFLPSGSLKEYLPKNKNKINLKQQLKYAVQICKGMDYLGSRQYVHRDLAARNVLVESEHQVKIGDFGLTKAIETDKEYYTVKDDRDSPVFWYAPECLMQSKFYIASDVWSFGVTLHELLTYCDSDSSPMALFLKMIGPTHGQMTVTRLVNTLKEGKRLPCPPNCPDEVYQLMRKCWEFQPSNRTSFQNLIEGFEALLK
Chain of Serine/threonine-protein kinase PAK 1 (Homo sapiens) (Q13153 whole entry, looked up): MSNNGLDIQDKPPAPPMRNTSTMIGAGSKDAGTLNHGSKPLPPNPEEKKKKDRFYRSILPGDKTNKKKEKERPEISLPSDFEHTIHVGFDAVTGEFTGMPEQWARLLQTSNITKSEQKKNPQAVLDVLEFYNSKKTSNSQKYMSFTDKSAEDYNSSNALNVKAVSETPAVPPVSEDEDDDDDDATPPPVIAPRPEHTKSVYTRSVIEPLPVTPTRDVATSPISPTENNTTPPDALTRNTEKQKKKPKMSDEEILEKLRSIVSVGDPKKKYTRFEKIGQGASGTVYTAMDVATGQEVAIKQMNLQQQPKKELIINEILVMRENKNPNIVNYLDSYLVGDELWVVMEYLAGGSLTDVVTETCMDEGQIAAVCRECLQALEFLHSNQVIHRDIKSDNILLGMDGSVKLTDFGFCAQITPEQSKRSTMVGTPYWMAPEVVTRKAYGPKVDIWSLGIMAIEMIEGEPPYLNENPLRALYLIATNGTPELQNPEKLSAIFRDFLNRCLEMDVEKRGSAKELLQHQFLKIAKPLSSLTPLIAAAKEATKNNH

In the case of `CCN1CCN(Cc2ccc(NC(=O)c3ccc(C)c(/C=C/c4cnc5[nH]ccc5c4OC)c3)cc2C(F)(F)F)CC1`, the inhibition worked out at 0% in assay [1], 5% in assay [2] and 2.7% in assay [3]. For the same compound, the residual activity in assay [4] turned out to be 100%; in assay [5], 62%; in assay [6], 100%. This compound also had a % of control in assay [7] of 4.4%.
Consider `CCN1CCN(Cc2ccc(NC(=O)c3ccc(C)c(Oc4ccnc5[nH]ccc45)c3)cc2C(F)(F)F)CC1`, for which the inhibition entry in assay [8] and in assay [9] was “inactive” each time. For the same compound, the inhibition is 51.2% in assay [10], -4.5% in assay [11] and 10.8% in [12].
As to `CNc1cc(Oc2cc(C(=O)Nc3cc(N4CCN(C)CC4)cc(C(F)(F)F)c3)ccc2C)ncn1`, in assay [13], the inhibition at 1 µM came to 0.9%. Besides, the inhibition in [14] was 53.8%.
